Experimental data as given in US20240100068A1, “METHODS COMPRISING ADMINISTRATION OF A GLUCOCORTICOID RECEPTOR AGONIST AND AN INHIBITOR OF CALCINEURIN” (Chengdu Anticancer Bioscience, Ltd., priority 2022, published 2024).
Entries after “also recorded” stand apart in the source; their conditions may differ. Read-outs that look alike come from different tables or passages of the source.

Key:
[1] = test system: T2MycNick cells; test: Testing compounds for their ability of restoring contact inhibition (vacuolation, cell density); assay type: cell-based, murine; conditions: for minimal effective concentration: T2MycNick cells grown beyond confluence, 7-14 days; for diameters of large vacuoles: cells that overgrew beyond confluence; for contact inhibition restoration (CIR) activity: high-density cells
[2] = test system: MycNick cells; test: MTT assay for cellular proliferation; assay type: cell-based, murine; conditions: confluence of 20-30%, 1 nM to 5 μM
[3] = test system: T2Bc1-xL cells; test: Restoration of contact inhibition and induction of vacuolation in Bc1-xL expressing cells; assay type: cell-based, murine; conditions: FIG. 6A: 7 days, 2 μM of DEX
Description: (§1) The indicated cell isogenic cell lines were exposed for 7 days to 2 μM of DEX. The cells were then imaged under an inverted tissue culture microscope (top left) or an EVOS FL Auto microscope after staining with Acridine Orange (bottom left). The area occupied by drug-induced vacuoles was quantified with Image J and data (bottom right). At the endpoint, the cells were also numerated with a Luna cell counter and relative cell number is shown (top right).

[4] = test system: breast cancer cell line MDA-MB-231; test: Final cell density and vacuolation in breast cancer cell line MDA-MB-231; assay type: cell-based; conditions: for final cell density: 2 weeks
Excerpt: (§2) FIG. 5B are graphs and images showing Hydrocortisone and Dexamethasone reduce the final cell density in a lung cancer cell line A549 and a breast cancer cell line MDA-MB-231). The cells were exposed to vehicle or the indicated concentrations of either Hydrocortisone or Dexamethasone for 2 weeks. The cells were then either numerated with a Luna cell counter or fixed and stained with PI for nuclei to reveal the cell density.

[5] = test system: MycNick cells; test: Soft agar colony formation assay (anchorage-independent growth); assay type: cell-based, murine; conditions: FIG. 9: 2 μM of DEX or 5 μM of HC, up to 22 days
Description: FIG. 9. are images (left) and graphs (right) showing both Hydrocortisone and Dexamethasone suppress the anchorage-independent growth of T2MycNick cells. The T2MycNick cells were mixed with 0.35% soft agar and transferred to 24-well microplates 24 hours before exposed to vehicle, 2 μM of DEX or 5 μM of HC. Images were acquired with an inverted tissue culture microscope at 1, 9 and 22 days after initiation of drug treatment. The sizes of spheroids were quantified with Image J (right).
The soft agar colony formation assay was performed in 6-well plates with two layers of agar. For the first, 0.75% agar in DMEM medium was melted in a microwave oven and poured to form a bottom layer. Once solidified, 10-100K cells in 1 ml of DMEM containing 0.35% agar was added to form the top layer, which was later covered with 0.5 ml of DMEM. Cell culture medium was changed once every two days until colonies were ready to photograph. The antitumor activity of Hydrocortisone and Dexamethasone was tested in soft agar assays. […] The suppression of growth of the cell line in 3D culture is consistent with the suppressive impact of these compounds on cell density when cells were allowed to grow beyond confluence.

[6] = test system: T2MycNick cells; test: Proliferation and viability of cells cultured under sub-confluence; assay type: cell-based, murine; conditions: for effect on proliferation and viability: cells grown at sub-confluence
Description: (§3) FIG. 1A is a graph showing that DEX has no effect on the viability of murine liver cancer cell lines cultured under sub-confluence. The isogenic murine liver cancer cell lines T2Puro and T2MycNick were passaged and exposed to vehicle or 2 μM of DEX at a confluence of 10%. The cell viability was assayed with Trypan blue exclusion assays at day 3.
FIG. 1C is a graph showing DEX has no effect on the proliferation of murine liver cancer cell lines cultured under sub-confluence the live cell number was calculated daily with an automatic Luna cell counter and relative cell number was shown for T2MycNick.
Exponentially growing murine cells expressing Myc-Nick (T2MycNick cells) were passaged into 24-well plates at a final confluence of 20% and were allowed to attach overnight before being exposed to a test compound at a concentration of 10 μM. T2MycNick cells were generated by expressing the Myc-nick, the N-terminal of the Myc protein, in the T2 cell line, which was, in turn, derived from a MYC-driven mouse liver cancer (Shachaf et al., Nature 2004 Oct. 28; 431(7012):1112-7). The cells were subjected to daily analysis of viability and morphology under an inverted tissue culture microscope or GE InCell Analyzer 2000. Cell density was documented after staining of DNA with PI 7-10 days after the initiation of treatment.

[7] = test system: T2MycNick cells; test: IF analysis of cell-cell junctions (ZO-1, β-catenin) in monolayer zones; assay type: cell-based, murine; conditions: 7 days
Description: FIG. 14A. Are images (left) and graphs (right) showing relocation of β-catenin to the cell-cell junctions in monolayer zones. The murine liver cancer cell line T2MycNick was treated with the indicated concentration of Hydrocortisone or Dexamethasone for 7 days before fixed for IF analysis of β-catenin. DNA was stained with DAPI. Images were acquired with an EVOS FL auto microscope. The relative signal density alone the line in each subpanel was quantified with Image J.
FIG. 14B. Are images (left) and graphs (right) showing relocation of ZO-1 to the cell-cell junctions in monolayer zones. […] The relative signal density alone the line in each subpanel was quantified with Image J. […]
The following are primary antibodies used in this study. […] Primary antibodies were detected with Rhodamine (TRITC)-conjugated AffiniPure Donkey Anti-Rabbit IgG (H+L) (Cat. # 711-025-152), Fluorescein(FITC)-conjugated Affinipure Goat Anti-Rabbit IgG (H+L) (Cat.#111-095-003), Alexa Fluor488 Affinipure Goat Anti-Mouse IgG (H+L) (Cat. #115-545-003 from Jackson ImmunoResearch at 1:500 dilution. After immunostaining, cells were mounted on microscope slides with 4′,6′-diamidino-2-phenylindole (DAPI)-containing Vectashield mounting solution (Vector Laboratories, Cat. # H1500). For fluorescence detection, an EVOS FL Auto microscope (Thermo Fisher) was used.

[8] = test system: T2Puro; test: Restoration of contact inhibition and induction of vacuolation in control cell line; assay type: cell-based, murine; conditions: FIG. 6A: 7 days, 2 μM of DEX
Description: as §1

[9] = test system: human lung cancer cell line A549; test: Final cell density and vacuolation in lung cancer cell line A549; assay type: cell-based; conditions: for final cell density: 2 weeks
Description: as §2
Cells were treated for 10 days with Hydrocortisone and a Calcineurin inhibitor either individually or in combination and then stained with PI for DNA before imaged with an EVOS FL auto microscope.

[10] = test system: murine lung cancer cell line TA2280; test: Final cell density and vacuolation in lung cancer cell line TA2280; assay type: cell-based; conditions: for final cell density: 2 weeks
Excerpt: FIG. 5A. are images showing Hydrocortisone and Dexamethasone reduce the final cell density in a murine lung cancer cell line TA2280. The cells were exposed to vehicle or the indicated concentrations of either Hydrocortisone or Dexamethasone for 2 weeks. The cells were then fixed and stained with PI for nuclei to reveal the cell density.

[11] = test system: T2Puro; test: Proliferation and viability of cells cultured under sub-confluence; assay type: cell-based, murine
Description: as §3
FIG. 1B is a graph showing DEX has no effect on the proliferation of murine liver cancer cell lines cultured under sub-confluence. The live cell number was calculated daily with an automatic Luna cell counter and relative cell number was shown for T2Puro.

Row | SMILES | diameters of large vacuoles [1] | contact inhibition restoration (CIR) activity [1] | sensitivity (contact inhibition, vacuolation) [3] | vacuolation [4] | final cell density [4] | anchorage-independent growth [5] | effect on proliferation and viability [6] | cell-cell junctions in monolayer zones [7] | response (contact inhibition, vacuolation) [8] | vacuolation [9] | final cell density [9] | vacuolation [10] | final cell density [10] | also measured
1 | C[C@]12CCC(=O)C=C1CC[C@@H]1[C@@H]2[C@@H](O)C[C@@]2(C)[C@H]1CC[C@]2(O)C(=O)CO [HC001, Hydrocortisone] | about 20 μm | restored contact inhibition | did not confer sensitivity | induction of vacuolation | Reduction of final cell density | effectively suppressed; also recorded: suppress | no detectable effect | restored | did not respond | induction of vacuolation | Reduction of final cell density | induction of vacuolation | Reduction of final cell density | minimal effective concentration ([1]; Mus musculus, PI staining, read-out: Conc that reduces > 50% in the cell density): 0.156 µM; minimal effective concentration ([1]; Mus musculus, vacuolation covering no less than 10% of a random field, read-out: Min. effective conc. that elicits vacuolation): 0.156 µM; proliferation (MTT) [2]: neither Hydrocortisone nor Cyclosporin A affected the proliferation; cellular proliferation and viability ([6]; 5 μM, grown in sub-confluence): did not affect
2 | C[C@@H]1C[C@H]2[C@@H]3CCC4=CC(=O)C=C[C@]4(C)[C@@]3(F)[C@@H](O)C[C@]2(C)[C@@]1(O)C(=O)CO [HC002, Dexamethasone] | about 20 μm | restored contact inhibition | did not confer sensitivity | induction of vacuolation | Reduction of final cell density | effectively suppressed; also recorded: suppress | no detectable effect | restored | did not respond | induction of vacuolation | Reduction of final cell density | induction of vacuolation | Reduction of final cell density | minimal effective concentration ([1]; PI staining, read-out: Conc that reduces > 50% in the cell density): 0.125 µM; minimal effective concentration ([1]; vacuolation covering no less than 10% of a random field, read-out: Min. effective conc. that elicits vacuolation): 0.125 µM; viability (Trypan blue exclusion) ([11]; 2 μM, confluence of 10%, day 3): no effect; proliferation (relative live cell number) ([11]; sub-confluence, counted daily): no effect; viability (Trypan blue exclusion) ([6]; 2 μM, confluence of 10%, day 3): no effect; proliferation (relative live cell number) ([6]; sub-confluence, counted daily): no effect
